The target of the test is recombinant human ASK1 kinase (Homo sapiens (Human), UniProt Q99683). Kind of test: TR-FRET ASK1 (Apoptosis Signal-Regulating Kinase 1) kinase assay. It is filed as biochemical. The note with it: TR-FRET/HTRF, 4 nM ASK1, 1 μM STK3 peptide substrate, 100 μM ATP, 3 hr; average of quadruplicate determination. The source says:
I. TR-FRET ASK1 (Apoptosis Signal-Regulating Kinase 1) Kinase Assay
To evaluate the inhibitory activity of compounds of the invention against ASK1 (Apoptosis Signal-regulating Kinase 1) kinase, its activity was examined using a TR-FRET ASK1 kinase assay which determined the amount of phosphate transferred to a peptide substrate from ATP.
Dephosphorylated recombinant human ASK1 kinase was from Gilead Sciences. Small molecule kinase inhibitor staurosporine (Catalogue #S6942) and dithiothreitol (DTT, catalogue #43815-5G) were obtained from Sigma Chemicals (St. Louis, Mo.). ATP (catalogue #7724) was from Affymetrix (Santa Clara, Calif.) and test compounds were from Gilead Sciences. HTRF KinEASE™-STK S3 kit was obtained from Cisbio (Bedford, Mass.). All other reagents were of the highest grade commercially available.
The assay measures the phosphorylation level of a biotinylated peptide substrate by the ASK1 kinase using HTRF detection. This is a competitive, time-resolved fluorescence resonance energy transfer (TR-FRET) immunoassay, based on HTRF® KinEASE™-STK manual from Cisbio. Test compound, 1 μM STK3 peptide substrate, 4 nM of ASK1 kinase were incubated with 10 mM MOP buffer, pH. 7.0 containing 10 mM Mg-acetate, 0.025% NP-40, 1 mM DTT, 0.05% BSA and 1.5% glycerol for 30 minutes then 100 μM ATP was added to start the kinase reaction and incubated for 3 hr. Peptide antibody labeled with 1×Eu^3+ Cryptate buffer containing 10 mM EDTA and 125 nM Streptavidin XL665 were added to stop the reaction and phosphorylated peptide substrate was detected using Envision 2103 Multilabeled reader from PerkinElmer. The fluorescence was measured at 615 nm (Cryptate) and 665 nm (XL665) and a ratio of 665 nm/615 nm was calculated for each well. The resulting TR-FRET level (a ratio of 665 nm/615 nm) was proportional to the phosphorylation level. Under these assay conditions, the degree of phosphorylation of peptide substrate was linear with time and concentration for the enzyme. The assay system yielded consistent results with regard to Km and specific activities for the enzyme. For inhibition experiments (IC50 values), activities were performed with constant concentrations of ATP, peptide and several fixed concentrations of inhibitors. Staurosporine, the nonselective kinase inhibitor, was used as the positive control. All enzyme activity data are reported as an average of quadruplicate determination.
The IC50 values were calculated following equation: y=Range/{1+(x/IC50)^s}+Background where x and y represent the concentration of inhibitors and enzyme activity, respectively. Enzyme activity is expressed as the amount of Phosphate incorporated into substrate peptide from ATP. Range is the maximum y range (no inhibitor, DMSO control) and s is a slope factor.

The values below come from patent publication US9169243B2, “Apoptosis signal-regulating kinase inhibitors” (Gilead Sciences, Inc., priority 2013, dated 2015).

What is called IC50 is the concentration that gives 50% inhibition.

Sequence of recombinant human ASK1 kinase (Q99683 whole entry): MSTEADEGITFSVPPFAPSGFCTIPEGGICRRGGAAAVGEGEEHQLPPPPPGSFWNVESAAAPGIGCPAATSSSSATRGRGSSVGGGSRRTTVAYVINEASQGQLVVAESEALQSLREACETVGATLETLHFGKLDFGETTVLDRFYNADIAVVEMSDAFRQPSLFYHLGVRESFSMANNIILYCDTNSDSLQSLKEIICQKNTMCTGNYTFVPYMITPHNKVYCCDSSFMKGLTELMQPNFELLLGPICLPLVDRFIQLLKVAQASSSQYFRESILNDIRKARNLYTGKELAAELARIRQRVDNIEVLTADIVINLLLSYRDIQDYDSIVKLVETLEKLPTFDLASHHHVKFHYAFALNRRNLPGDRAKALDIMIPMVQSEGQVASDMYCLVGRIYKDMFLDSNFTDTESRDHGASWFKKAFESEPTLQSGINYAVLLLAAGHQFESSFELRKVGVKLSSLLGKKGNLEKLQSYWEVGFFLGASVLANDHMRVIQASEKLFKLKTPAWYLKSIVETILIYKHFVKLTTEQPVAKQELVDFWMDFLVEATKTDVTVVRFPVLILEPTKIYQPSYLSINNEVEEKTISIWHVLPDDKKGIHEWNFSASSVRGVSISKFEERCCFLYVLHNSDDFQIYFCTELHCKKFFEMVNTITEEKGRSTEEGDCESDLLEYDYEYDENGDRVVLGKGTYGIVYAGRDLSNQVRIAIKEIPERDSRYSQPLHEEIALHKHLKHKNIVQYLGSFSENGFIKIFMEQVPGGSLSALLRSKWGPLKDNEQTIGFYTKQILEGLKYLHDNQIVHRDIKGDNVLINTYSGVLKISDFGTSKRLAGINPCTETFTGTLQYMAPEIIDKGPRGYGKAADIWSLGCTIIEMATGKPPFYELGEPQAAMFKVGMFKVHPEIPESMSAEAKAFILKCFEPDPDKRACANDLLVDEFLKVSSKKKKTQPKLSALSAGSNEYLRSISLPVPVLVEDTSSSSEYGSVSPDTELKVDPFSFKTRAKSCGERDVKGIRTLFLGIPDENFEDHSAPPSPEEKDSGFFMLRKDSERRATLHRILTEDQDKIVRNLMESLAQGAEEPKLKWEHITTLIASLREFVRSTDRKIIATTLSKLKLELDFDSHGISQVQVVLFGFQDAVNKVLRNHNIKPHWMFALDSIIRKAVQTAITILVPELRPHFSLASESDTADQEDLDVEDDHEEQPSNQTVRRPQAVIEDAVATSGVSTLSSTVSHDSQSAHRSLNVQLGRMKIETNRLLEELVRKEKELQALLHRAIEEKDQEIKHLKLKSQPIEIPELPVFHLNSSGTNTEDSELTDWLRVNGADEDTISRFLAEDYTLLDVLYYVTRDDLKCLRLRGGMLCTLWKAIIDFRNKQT

Regarding `COC1(C)CN(c2cnc(C(=O)Nc3csc(-c4nncn4[C@@H](C)C(F)(F)F)n3)cc2-n2cnc(C3CC3)c2)C1` [Compound 25, (S)-4-(4-cyclopropyl-1H-imidazol-1-yl)-5-(3-methoxy-3-methylazetidin-1-yl)-N-(2-(4-(1,1,1-trifluoropropan-2-yl)-4H-1,2,4-triazol-3-yl)thiazol-4-yl)picolinamide], the IC50 turned out to be 2 nM.

As for `C[C@H](n1cnnc1-c1nc(NC(=O)c2cc(-n3cnc(C4CC4)c3)c(N3CC(C(F)F)C3)cn2)cs1)C(F)(F)F` [Compound 26, (S)-4-(4-cyclopropyl-1H-imidazol-1-yl)-5-(3-(difluoromethyl)azetidin-1-yl)-N-(2-(4-(1,1,1-trifluoropropan-2-yl)-4H-1,2,4-triazol-3-yl)thiazol-4-yl)picolinamide], the IC50 came to 1.7 nM.

Turning to `C[C@H](n1cnnc1-c1nc(NC(=O)c2cc(-n3cnc(C4CC4)c3)c(N3CCC(F)(F)C3)cn2)cs1)C(F)(F)F` [Compound 27, (S)-4-(4-cyclopropyl-1H-imidazol-1-yl)-5-(3,3-difluoropyrrolidin-1-yl)-N-(2-(4-(1,1,1-trifluoropropan-2-yl)-4H-1,2,4-triazol-3-yl)thiazol-4-yl)picolinamide], the IC50 came to 2.1 nM.

As for `C[C@H](n1cnnc1-c1nc(NC(=O)c2cc(-n3cnc(C4CC4)c3)c(N3CCC(C#N)CC3)cn2)cs1)C(F)(F)F` [Compound 29, (S)-5-(4-cyanopiperidin-1-yl)-4-(4-cyclopropyl-1H-imidazol-1-yl)-N-(2-(4-(1,1,1-trifluoropropan-2-yl)-4H-1,2,4-triazol-3-yl)thiazol-4-yl)picolinamide], the IC50 amounted to 1.7 nM.

Take `COC1CCN(c2cnc(C(=O)Nc3csc(-c4nncn4[C@@H](C)C(F)(F)F)n3)cc2-n2cnc(C3CC3)c2)CC1` [Compound 30, (S)-4-(4-cyclopropyl-1H-imidazol-1-yl)-5-(4-methoxypiperidin-1-yl)-N-(2-(4-(1,1,1-trifluoropropan-2-yl)-4H-1,2,4-triazol-3-yl)thiazol-4-yl)picolinamide]: the IC50 was 2.3 nM.

Turning to `CNC(=O)C1CCN(c2cnc(C(=O)Nc3csc(-c4nncn4[C@@H](C)C(F)(F)F)n3)cc2-n2cnc(C3CC3)c2)CC1` [Compound 31, (S)-4-(4-cyclopropyl-1H-imidazol-1-yl)-5-(4-(methylcarbamoyl)piperidin-1-yl)-N-(2-(4-(1,1,1-trifluoropropan-2-yl)-4H-1,2,4-triazol-3-yl)thiazol-4-yl)picolinamide], the IC50 is 2.3 nM.

With `C[C@H](n1cnnc1-c1nc(NC(=O)c2cc(-n3cnc(C4CC4)c3)c(N3CCC(C(F)(F)F)CC3)cn2)cs1)C(F)(F)F` [Compound 32, (S)-4-(4-cyclopropyl-1H-imidazol-1-yl)-5-(4-(trifluoromethyl)piperidin-1-yl)-N-(2-(4-(1,1,1-trifluoropropan-2-yl)-4H-1,2,4-triazol-3-yl)thiazol-4-yl)picolinamide], the IC50 came to 1.5 nM.

Consider `C[C@H](n1cnnc1-c1nc(NC(=O)c2cc(-n3cnc(C4CC4)c3)c(N3CCC(F)CC3)cn2)cs1)C(F)(F)F` [Compound 34, (S)-4-(4-cyclopropyl-1H-imidazol-1-yl)-5-(4-fluoropiperidin-1-yl)-N-(2-(4-(1,1,1-trifluoropropan-2-yl)-4H-1,2,4-triazol-3-yl)thiazol-4-yl)picolinamide], for which the IC50 was found to be 1.7 nM.

In the case of `COC1(C)CCN(c2cnc(C(=O)Nc3csc(-c4nncn4[C@@H](C)C(F)(F)F)n3)cc2-n2cnc(C3CC3)c2)CC1` [Compound 35, (S)-4-(4-cyclopropyl-1H-imidazol-1-yl)-5-(4-methoxy-4-methylpiperidin-1-yl)-N-(2-(4-(1,1,1-trifluoropropan-2-yl)-4H-1,2,4-triazol-3-yl)thiazol-4-yl)picolinamide], the IC50 worked out at 2.2 nM.

As to `C[C@H](n1cnnc1-c1nc(NC(=O)c2cc(-n3cnc(C4CC4)c3)c(N3CCCOCC3)cn2)cs1)C(F)(F)F` [Compound 36, (S)-4-(4-cyclopropyl-1H-imidazol-1-yl)-5-(1,4-oxazepan-4-yl)-N-(2-(4-(1,1,1-trifluoropropan-2-yl)-4H-1,2,4-triazol-3-yl)thiazol-4-yl)picolinamide], the IC50 amounted to 1.9 nM.

In the case of `C[C@H](n1cnnc1-c1nc(NC(=O)c2cc(-n3cnc(C4CC4)c3)c(N3CCN4CCCC4C3)cn2)cs1)C(F)(F)F` (stereo partly drawn) [Compound 37, 4-(4-cyclopropyl-1H-imidazol-1-yl)-5-(hexahydropyrrolo[1,2-a]pyrazin-2(1H)-yl)-N-(2-(4-((S)-1,1,1-trifluoropropan-2-yl)-4H-1,2,4-triazol-3-yl)thiazol-4-yl)picolinamide], the IC50 came out at 1.8 nM.

Regarding `C[C@H](n1cnnc1-c1nc(NC(=O)c2cc(-n3cnc(C4CC4)c3)c(N3CC4CN(C)CC4C3)cn2)cs1)C(F)(F)F` (stereo partly drawn) [Compound 38, 4-(4-cyclopropyl-1H-imidazol-1-yl)-5-(5-methylhexahydropyrrolo[3,4-c]pyrrol-2(1H)-yl)-N-(2-(4-((S)-1,1,1-trifluoropropan-2-yl)-4H-1,2,4-triazol-3-yl)thiazol-4-yl)picolinamide], the IC50 is 2.4 nM.

For the compound `C[C@H](n1cnnc1-c1nc(NC(=O)c2cc(-n3cnc(C4CC4)c3)c(N3CCN4C(=O)OCC4C3)cn2)cs1)C(F)(F)F` (stereo partly drawn) [Compound 39, 4-(4-cyclopropyl-1H-imidazol-1-yl)-5-(3-oxotetrahydro-1H-oxazolo[3,4-a]pyrazin-7(3H)-yl)-N-(2-(4-((S)-1,1,1-trifluoropropan-2-yl)-4H-1,2,4-triazol-3-yl)thiazol-4-yl)picolinamide], the IC50 stood at 2.3 nM.

On to `C[C@H](n1cnnc1-c1nc(NC(=O)c2cc(-n3cnc(C4CC4)c3)c(N3CC4CC4C3)cn2)cs1)C(F)(F)F` (stereo partly drawn) [Compound 40, 5-(3-azabicyclo[3.1.0]hexan-3-yl)-4-(4-cyclopropyl-1H-imidazol-1-yl)-N-(2-(4-((S)-1,1,1-trifluoropropan-2-yl)-4H-1,2,4-triazol-3-yl)thiazol-4-yl)picolinamide], for which the IC50 came to 2.2 nM.

`C[C@H](n1cnnc1-c1nc(NC(=O)c2cc(-n3cnc(C4CC4)c3)c(N3CC(N4CCOCC4)C3)cn2)cs1)C(F)(F)F` [Compound 41, (S)-4-(4-cyclopropyl-1H-imidazol-1-yl)-5-(3-morpholinoazetidin-1-yl)-N-(2-(4-(1,1,1-trifluoropropan-2-yl)-4H-1,2,4-triazol-3-yl)thiazol-4-yl)picolinamide]: the IC50 came out at 1.9 nM.

For `C[C@H](n1cnnc1-c1nc(NC(=O)c2cc(-n3cnc(C4CC4)c3)c(N3CCN(C4CC4)CC3)cn2)cs1)C(F)(F)F` [Compound 42, (S)-4-(4-cyclopropyl-1H-imidazol-1-yl)-5-(4-cyclopropylpiperazin-1-yl)-N-(2-(4-(1,1,1-trifluoropropan-2-yl)-4H-1,2,4-triazol-3-yl)thiazol-4-yl)picolinamide], the IC50 came to 1.8 nM.

With `C[C@H](n1cnnc1-c1nc(NC(=O)c2cc(-n3cnc(C4CC4)c3)c(N3CCN(CC4CC4)CC3)cn2)cs1)C(F)(F)F` [Compound 43, (S)-4-(4-cyclopropyl-1H-imidazol-1-yl)-5-(4-(cyclopropylmethyl)piperazin-1-yl)-N-(2-(4-(1,1,1-trifluoropropan-2-yl)-4H-1,2,4-triazol-3-yl)thiazol-4-yl)picolinamide], the IC50 was 1.8 nM.

As to `C[C@H](n1cnnc1-c1nc(NC(=O)c2cc(-n3cnc(C4CC4)c3)c(N3CCC4(CC3)COC4)cn2)cs1)C(F)(F)F` [Compound 44, (S)-4-(4-cyclopropyl-1H-imidazol-1-yl)-5-(2-oxa-7-azaspiro[3.5]nonan-7-yl)-N-(2-(4-(1,1,1-trifluoropropan-2-yl)-4H-1,2,4-triazol-3-yl)thiazol-4-yl)picolinamide], the IC50 worked out at 2.1 nM.

Consider `C[C@H](n1cnnc1-c1nc(NC(=O)c2cc(-n3cnc(C4CC4)c3)c(N3CC4(CCOCC4)C3)cn2)cs1)C(F)(F)F` [Compound 45, (S)-4-(4-cyclopropyl-1H-imidazol-1-yl)-5-(7-oxa-2-azaspiro[3.5]nonan-2-yl)-N-(2-(4-(1,1,1-trifluoropropan-2-yl)-4H-1,2,4-triazol-3-yl)thiazol-4-yl)picolinamide], for which the IC50 was determined as 2.6 nM.
